Measured values: ChEMBL document CHEMBL4052667 (Bioorg Med Chem, 2017)
Blank lines part the entries; values can stand above or below the molecule they belong to. Activity calls are given as the source filed them. The rule behind the calls is not given here.

Experiments:
MDA-MB-231 [1] = assay: Induction of apoptosis in human MDA-MB-231 cells assessed as viable cells at 5 uM after 48 hrs by Annexin V-FITC/propidium iodide staining based flow cytometry (reference value: 94.9%); type: functional; conditions: MDA-MB-231, 48 h, read-out: Activity
MDA-MB-231 [2] = assay: Induction of apoptosis in human MDA-MB-231 cells assessed as increase in cleave caspase-8 level up to 10 uM measured after 24 hrs by Western blot analysis; type: functional, cell-based
MDA-MB-231 [3] = assay: Decrease in BRCA1 protein level in human MDA-MB-231 cells up to 10 uM measured after 24 hrs by Western blot analysis; type: functional, cell-based
MDA-MB-231 [4] = assay: Decrease in RAd51 protein level in human MDA-MB-231 cells up to 10 uM measured after 24 hrs by Western blot analysis; type: functional, cell-based
Raji [5] = assay: Antiproliferative activity against human Raji cells after 3 days by MTT assay; type: functional, cell-based; conditions: 72 h
Histone deacetylase 1 = Histone deacetylase 1 (Homo sapiens, UniProt Q13547); assay: Inhibition of HDAC1 (unknown origin) using acetylated peptide substrate preincubated for 15 mins followed by substrate addition measured after 60 mins by fluorescence analysis
MDA-MB-231 [6] = assay: Induction of apoptosis in human MDA-MB-231 cells assessed as necrotic cells at 2.5 uM after 48 hrs by Annexin V-FITC/propidium iodide staining based flow cytometry (reference value: 0.024%); type: functional
MDA-MB-231 [7] = assay: Induction of apoptosis in human MDA-MB-231 cells assessed as late apoptotic cells at 2.5 uM after 48 hrs by Annexin V-FITC/propidium iodide staining based flow cytometry (reference value: 3.82%); type: functional
MDA-MB-231 [8] = assay: Induction of apoptosis in human MDA-MB-231 cells assessed as early apoptotic cells at 10 uM after 48 hrs by Annexin V-FITC/propidium iodide staining based flow cytometry (reference value: 1.27%); type: functional
MDA-MB-231 [9] = assay: Induction of apoptosis in human MDA-MB-231 cells assessed as increase in cleave caspase-3 level up to 10 uM measured after 24 hrs by Western blot analysis; type: functional, cell-based
Homo sapiens [10] = species: Homo sapiens; assay: Inhibition of HDAC in human MDA-MB-231 cells assessed as increase in acetylation of histone H3K9 level up to 10 uM after 24 hrs by Western blot analysis; type: cell-based
[11] = target: Poly [ADP-ribose] polymerase 1 (Homo sapiens, UniProt P09874); assay: Inhibition of recombinant full length human N-terminal GST-tagged PARP1 expressed in baculovirus infected Sf9 cells using biotinylated substrate after 1 hr by UV/Vis spectrophotometric analysis
MDA-MB-231 [12] = assay: Induction of apoptosis in human MDA-MB-231 cells assessed as necrotic cells at 5 uM after 48 hrs by Annexin V-FITC/propidium iodide staining based flow cytometry (reference value: 0.024%); type: functional
MDA-MB-231 [13] = assay: Induction of apoptosis in human MDA-MB-231 cells assessed as early apoptotic cells at 5 uM after 48 hrs by Annexin V-FITC/propidium iodide staining based flow cytometry (reference value: 1.27%); type: functional
[14] = target: Poly [ADP-ribose] polymerase 2 (Homo sapiens, UniProt Q9UGN5); assay: Inhibition of recombinant human N-terminal GST-tagged PARP2 (2 to 583 residues) expressed in baculovirus infected Sf9 cells using biotinylated substrate after 1 hr by UV/Vis spectrophotometric analysis
MCF7 = assay: Antiproliferative activity against human MCF7 cells after 72 hrs by MTT assay; type: functional, cell-based; conditions: MCF7, 72 h
MDA-MB-231 [15] = assay: Induction of apoptosis in human MDA-MB-231 cells assessed as reduction in full length PARP level measured after 24 hrs by Western blot analysis; type: functional, cell-based
HCC1937 = assay: Antiproliferative activity against human HCC1937 cells after 3 days by MTT assay; type: functional, cell-based; conditions: HCC1937, 72 h
MDA-MB-231 [16] = assay: Antiproliferative activity against human MDA-MB-231 cells after 5 days by MTT assay; type: functional, cell-based; conditions: MDA-MB-231, 120 h
MDA-MB-231 [17] = assay: Induction of apoptosis in human MDA-MB-231 cells assessed as late apoptotic cells at 10 uM after 48 hrs by Annexin V-FITC/propidium iodide staining based flow cytometry (reference value: 3.82%); type: functional
T47D = assay: Antiproliferative activity against human T47D cells after 72 hrs by MTT assay; type: functional, cell-based
MDA-MB-231 [18] = assay: Induction of apoptosis in human MDA-MB-231 cells assessed as increase in gamma-H2AX level up to 10 uM after 24 hrs by Western blot analysis; type: functional, cell-based
Raji [19] = assay: Potency index, ratio of SAHA IC50 to compound IC50 for human Raji cells; type: functional
[20] = Safety index, ratio of compound IC50 to SAHA IC50 for human MCF10A cells; type: ADME, cell-based, MCF-10A; conditions: read-out: Ratio IC50
U-937 = assay: Antiproliferative activity against human U937 cells after 72 hrs by MTT assay; type: functional, cell-based; conditions: U-937, 72 h
MDA-MB-231 [21] = assay: Antiproliferative activity against human MDA-MB-231 cells after 72 hrs by MTT assay; type: functional, cell-based; conditions: MDA-MB-231, 72 h
MDA-MB-231 [22] = assay: Induction of apoptosis in human MDA-MB-231 cells assessed as viable cells at 10 uM after 48 hrs by Annexin V-FITC/propidium iodide staining based flow cytometry (reference value: 94.9%); type: functional; conditions: MDA-MB-231, 48 h, read-out: Activity
MDA-MB-231 [23] = assay: Induction of apoptosis in human MDA-MB-231 cells assessed as viable cells at 2.5 uM after 48 hrs by Annexin V-FITC/propidium iodide staining based flow cytometry (reference value: 94.9%); type: functional; conditions: MDA-MB-231, 48 h, read-out: Activity
MDA-MB-231 [24] = assay: Induction of apoptosis in human MDA-MB-231 cells assessed as late apoptotic cells at 5 uM after 48 hrs by Annexin V-FITC/propidium iodide staining based flow cytometry (reference value: 3.82%); type: functional
HCC827 = assay: Antiproliferative activity against human HCC827 cells after 72 hrs by MTT assay; type: functional, cell-based; conditions: HCC827, 72 h
MDA-MB-231 [25] = assay: Induction of apoptosis in human MDA-MB-231 cells assessed as necrotic cells at 10 uM after 48 hrs by Annexin V-FITC/propidium iodide staining based flow cytometry (reference value: 0.024%); type: functional
MDA-MB-231 [26] = assay: Induction of apoptosis in human MDA-MB-231 cells assessed as increase in cleave PARP level measured after 24 hrs by Western blot analysis; type: functional, cell-based
K562 = assay: Antiproliferative activity against human K562 cells after 72 hrs by MTT assay; type: functional, cell-based; conditions: K562, 72 h
HeLa = assay: Antiproliferative activity against human HeLa cells after 72 hrs by MTT assay; type: functional, cell-based
MDA-MB-231 [27] = assay: Induction of apoptosis in human MDA-MB-231 cells assessed as increase in cleave caspase-9 level at 10 uM measured after 24 hrs by Western blot analysis; type: functional, cell-based
MDA-MB-231 [28] = assay: Induction of apoptosis in human MDA-MB-231 cells after 48 hrs by Annexin V-FITC/propidium iodide staining based flow cytometry; type: functional, cell-based
MDA-MB-231 [29] = assay: Induction of apoptosis in human MDA-MB-231 cells assessed as increase in cleave caspase-7 level up to 10 uM measured after 24 hrs by Western blot analysis; type: functional, cell-based
MDA-MB-231 [30] = assay: Induction of apoptosis in human MDA-MB-231 cells assessed as early apoptotic cells at 2.5 uM after 48 hrs by Annexin V-FITC/propidium iodide staining based flow cytometry (reference value: 1.27%); type: functional
Homo sapiens [31] = species: Homo sapiens; assay: Inhibition of HDAC in human MDA-MB-231 cells assessed as increase in hyperacetylation of histone H4K8 level up to 10 uM after 24 hrs by Western blot analysis; type: cell-based
MCF-10A = assay: Antiproliferative activity against human MCF10A cells after 72 hrs by MTT assay; type: cell-based
[32] = target: T1, Protein deacetylase HDAC6 (Homo sapiens, UniProt Q9UBN7); assay: Inhibition of HDAC6 (unknown origin) using acetylated peptide substrate preincubated for 15 mins followed by substrate addition measured after 60 mins by fluorescence analysis
T1 sequence (Q9UBN7 whole entry): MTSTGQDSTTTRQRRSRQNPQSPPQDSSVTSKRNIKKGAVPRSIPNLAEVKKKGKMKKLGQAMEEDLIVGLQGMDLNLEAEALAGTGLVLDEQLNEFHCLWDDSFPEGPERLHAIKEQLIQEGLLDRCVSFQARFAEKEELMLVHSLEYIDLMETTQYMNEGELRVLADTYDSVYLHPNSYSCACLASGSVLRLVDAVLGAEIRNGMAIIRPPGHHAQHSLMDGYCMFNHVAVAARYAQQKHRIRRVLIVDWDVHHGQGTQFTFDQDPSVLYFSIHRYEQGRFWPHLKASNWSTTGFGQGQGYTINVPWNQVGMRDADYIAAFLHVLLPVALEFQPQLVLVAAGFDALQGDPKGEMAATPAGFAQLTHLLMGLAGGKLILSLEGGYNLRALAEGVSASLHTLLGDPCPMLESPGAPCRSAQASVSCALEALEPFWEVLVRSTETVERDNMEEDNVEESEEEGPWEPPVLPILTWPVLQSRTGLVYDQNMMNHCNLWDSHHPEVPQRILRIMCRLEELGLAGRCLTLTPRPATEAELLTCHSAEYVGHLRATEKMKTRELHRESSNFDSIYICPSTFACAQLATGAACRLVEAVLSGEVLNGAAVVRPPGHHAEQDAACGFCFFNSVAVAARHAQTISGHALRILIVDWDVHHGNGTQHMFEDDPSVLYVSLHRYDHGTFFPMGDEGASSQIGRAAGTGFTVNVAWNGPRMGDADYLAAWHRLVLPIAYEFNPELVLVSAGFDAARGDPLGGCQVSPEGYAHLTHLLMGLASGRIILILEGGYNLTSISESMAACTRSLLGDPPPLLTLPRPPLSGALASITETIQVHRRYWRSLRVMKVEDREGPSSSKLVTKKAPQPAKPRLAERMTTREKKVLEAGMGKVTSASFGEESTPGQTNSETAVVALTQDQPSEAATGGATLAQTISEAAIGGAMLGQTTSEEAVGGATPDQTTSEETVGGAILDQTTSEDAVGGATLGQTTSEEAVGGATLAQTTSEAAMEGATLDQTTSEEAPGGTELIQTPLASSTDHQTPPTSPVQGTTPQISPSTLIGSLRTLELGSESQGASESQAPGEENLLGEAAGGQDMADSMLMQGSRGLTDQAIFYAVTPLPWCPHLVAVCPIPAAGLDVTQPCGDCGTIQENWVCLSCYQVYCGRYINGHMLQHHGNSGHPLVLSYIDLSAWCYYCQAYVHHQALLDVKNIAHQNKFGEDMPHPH

Chain of Poly [ADP-ribose] polymerase 2 (Q9UGN5 whole entry, the tested form may be a part): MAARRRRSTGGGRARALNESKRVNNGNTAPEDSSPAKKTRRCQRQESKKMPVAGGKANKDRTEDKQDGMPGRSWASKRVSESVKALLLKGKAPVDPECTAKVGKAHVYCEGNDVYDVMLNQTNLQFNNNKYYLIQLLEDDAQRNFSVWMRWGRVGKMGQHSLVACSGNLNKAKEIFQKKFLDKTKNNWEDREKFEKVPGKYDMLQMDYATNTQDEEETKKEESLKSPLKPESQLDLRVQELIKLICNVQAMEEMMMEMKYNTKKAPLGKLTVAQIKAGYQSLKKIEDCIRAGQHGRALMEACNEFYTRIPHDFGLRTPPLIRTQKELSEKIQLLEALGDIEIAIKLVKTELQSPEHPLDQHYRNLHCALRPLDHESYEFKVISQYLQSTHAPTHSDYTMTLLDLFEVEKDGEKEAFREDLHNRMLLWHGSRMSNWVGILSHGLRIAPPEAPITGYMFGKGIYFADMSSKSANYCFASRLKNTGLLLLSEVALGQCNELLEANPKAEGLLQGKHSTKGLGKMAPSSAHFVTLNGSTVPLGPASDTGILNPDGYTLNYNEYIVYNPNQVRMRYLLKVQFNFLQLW
Chain of Histone deacetylase 1 (Q13547 whole entry): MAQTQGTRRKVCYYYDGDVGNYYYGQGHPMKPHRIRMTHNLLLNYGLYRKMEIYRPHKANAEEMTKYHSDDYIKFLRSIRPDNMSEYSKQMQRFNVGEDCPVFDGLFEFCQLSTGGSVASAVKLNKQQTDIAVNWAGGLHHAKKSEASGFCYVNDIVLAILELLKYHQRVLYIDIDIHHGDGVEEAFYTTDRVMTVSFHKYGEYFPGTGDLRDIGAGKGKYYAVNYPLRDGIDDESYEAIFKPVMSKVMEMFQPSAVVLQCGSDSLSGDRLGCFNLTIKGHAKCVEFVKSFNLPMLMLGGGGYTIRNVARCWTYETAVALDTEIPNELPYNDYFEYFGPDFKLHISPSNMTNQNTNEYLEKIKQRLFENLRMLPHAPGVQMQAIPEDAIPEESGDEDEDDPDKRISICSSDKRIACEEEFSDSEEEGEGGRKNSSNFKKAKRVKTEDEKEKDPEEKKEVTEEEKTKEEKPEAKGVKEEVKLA
Chain of Poly [ADP-ribose] polymerase 1 (P09874 whole entry): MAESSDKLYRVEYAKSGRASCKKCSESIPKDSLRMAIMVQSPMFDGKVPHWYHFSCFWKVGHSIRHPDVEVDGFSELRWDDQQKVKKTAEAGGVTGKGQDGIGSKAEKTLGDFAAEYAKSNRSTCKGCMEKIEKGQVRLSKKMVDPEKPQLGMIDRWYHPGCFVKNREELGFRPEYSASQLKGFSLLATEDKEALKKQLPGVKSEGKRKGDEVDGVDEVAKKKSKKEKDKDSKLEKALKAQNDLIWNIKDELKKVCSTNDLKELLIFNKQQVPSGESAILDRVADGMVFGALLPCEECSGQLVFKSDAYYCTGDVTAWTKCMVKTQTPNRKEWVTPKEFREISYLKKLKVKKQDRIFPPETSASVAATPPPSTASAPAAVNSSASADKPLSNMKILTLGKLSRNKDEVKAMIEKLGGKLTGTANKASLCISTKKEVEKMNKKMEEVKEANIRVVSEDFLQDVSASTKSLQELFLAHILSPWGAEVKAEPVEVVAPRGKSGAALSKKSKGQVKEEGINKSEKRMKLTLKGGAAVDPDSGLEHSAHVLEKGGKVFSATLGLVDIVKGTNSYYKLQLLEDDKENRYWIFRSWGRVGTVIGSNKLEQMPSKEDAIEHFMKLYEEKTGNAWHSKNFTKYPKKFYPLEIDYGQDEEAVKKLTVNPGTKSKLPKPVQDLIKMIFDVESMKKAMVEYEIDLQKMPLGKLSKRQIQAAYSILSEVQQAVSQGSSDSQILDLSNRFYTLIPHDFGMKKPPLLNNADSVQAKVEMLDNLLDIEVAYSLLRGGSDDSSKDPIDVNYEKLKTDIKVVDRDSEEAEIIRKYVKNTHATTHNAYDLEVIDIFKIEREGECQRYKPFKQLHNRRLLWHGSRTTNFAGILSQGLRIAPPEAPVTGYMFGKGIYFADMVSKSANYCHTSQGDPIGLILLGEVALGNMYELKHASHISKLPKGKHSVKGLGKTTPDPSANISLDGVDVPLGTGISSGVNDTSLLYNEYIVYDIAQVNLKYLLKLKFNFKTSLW

IC50 (Raji [5]): 1.29 µM
IC50 (Histone deacetylase 1): 0.0273 µM
IC50 [11]: 0.0682 µM
IC50 [14]: 0.00502 µM
IC50 (MCF7): 3.55 µM
IC50 (HCC1937): 2.02 µM
IC50 (MDA-MB-231 [16]): 0.22 µM
IC50 (T47D): 2.14 µM
IC50 (U-937): 4.5 µM
IC50 (MDA-MB-231 [21]): 1.54 µM
IC50 (HCC827): 1.79 µM
IC50 (K562): 5.55 µM
IC50 (HeLa): 5.1 µM
IC50 [32]: 0.00821 µM
Compound: O=C(/C=C/c1ccc(CCNC(=O)c2cc(Cc3n[nH]c(=O)c4ccccc34)ccc2F)cc1)NO
viability at 5 µM (MDA-MB-231 [1]): 35.1%
Activity (MDA-MB-231 [2]): Active
Activity (MDA-MB-231 [3]): Active
Activity (MDA-MB-231 [4]): Active
Activity (MDA-MB-231 [6]): 2.29%
Activity (MDA-MB-231 [7]): 8.03%
Activity (MDA-MB-231 [8]): 47%
Activity (MDA-MB-231 [9]): Active
inhibition (Homo sapiens [10]): Active
Activity (MDA-MB-231 [12]): 2.79%
Activity (MDA-MB-231 [13]): 28.6%
Activity (MDA-MB-231 [15]): Dose-dependent effect
Activity (MDA-MB-231 [17]): 45.8%
Activity (MDA-MB-231 [18]): Active
Ratio IC50 (Raji [19]): 7
selectivity ratio [20]: 4.1
viability at 10 µM (MDA-MB-231 [22]): 6.79%
viability at 2.5 µM (MDA-MB-231 [23]): 79.2%
Activity (MDA-MB-231 [24]): 33.5%
Activity (MDA-MB-231 [25]): 0.447%
Activity (MDA-MB-231 [26]): Dose-dependent effect
Activity (MDA-MB-231 [27]): Active
Activity (MDA-MB-231 [28]): Dose-dependent effect
Activity (MDA-MB-231 [29]): Active
Activity (MDA-MB-231 [30]): 10.4%
inhibition (Homo sapiens [31]): Active
IC50 (MCF-10A): 8.65 µM

Compound: O=C(CCCCCCC(=O)Nc1ccccc1)NO [VORINOSTAT]
IC50 (MCF-10A): 2.11 µM
